Measured values: PMC4876719 (Cell chemical biology, 2016)

Biological target: glutathione-S-transferase Pi 1 (GSTP1) (Homo sapiens, UniProt P09211)
Assay: CDNB-glutathione conjugation assay with pure GSTP1 after […] min pre-incubation
Format: biochemical

Chain of glutathione-S-transferase Pi 1 (GSTP1) (P09211 2-210): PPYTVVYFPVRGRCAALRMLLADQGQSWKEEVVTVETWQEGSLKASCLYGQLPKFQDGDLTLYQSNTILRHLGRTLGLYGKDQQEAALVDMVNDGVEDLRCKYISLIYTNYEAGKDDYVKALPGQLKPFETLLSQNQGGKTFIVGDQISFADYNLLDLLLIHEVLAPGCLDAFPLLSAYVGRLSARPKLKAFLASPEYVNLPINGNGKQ

- IC50: 500 nM
Substance: LAS17
